Literature values in PMC2884396 (Journal of medicinal chemistry, 2010).

How the values were obtained:
[1] = system: androgen receptor (AR); conditions: ref [24]-[27]
[2] = system: glucocorticoid receptor (GR); conditions: ref [24]-[27]

Cn1c(C#N)ccc1-c1ccc2c(c1)C(C)(C)OC(=S)N2 [Tanaproget (1), Tanaproget]
affinity for AR [1]: very low affinity
affinity for GR [2]: very low affinity
